In test [1] the target is T1, human alpha 1a adrenergic receptor (Homo sapiens, UniProt P35348).
T1 sequence (P35348 1-466): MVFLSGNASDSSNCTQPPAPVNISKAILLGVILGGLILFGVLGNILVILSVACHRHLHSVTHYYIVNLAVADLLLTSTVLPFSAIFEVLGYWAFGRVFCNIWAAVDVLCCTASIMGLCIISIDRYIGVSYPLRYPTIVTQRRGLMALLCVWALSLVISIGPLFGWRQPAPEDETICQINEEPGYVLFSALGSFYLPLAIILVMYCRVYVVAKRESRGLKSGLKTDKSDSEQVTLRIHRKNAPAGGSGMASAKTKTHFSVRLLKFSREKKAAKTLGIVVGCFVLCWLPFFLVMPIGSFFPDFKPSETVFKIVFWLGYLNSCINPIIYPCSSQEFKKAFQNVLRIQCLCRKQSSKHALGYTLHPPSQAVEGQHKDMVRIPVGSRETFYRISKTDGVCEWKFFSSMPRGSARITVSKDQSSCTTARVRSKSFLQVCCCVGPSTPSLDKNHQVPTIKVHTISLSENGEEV
Description: Screening assay: alpha 1a adrenergic receptor binding ([125I]-HEAT competition, membranes of stably transfected cell line). The protocol: Screening Assay: Alpha 1a Adrenergic Receptor Binding
Membranes prepared from the stably transfected human alpha 1a cell line (ATCC CRL 11140) were used to identify compounds that bind to the human alpha 1a adrenergic receptor. These competition binding reactions (total volume=200 μl) contained 50 mM Tris-HCl pH. 7.4, 5 mM EDTA, 150 mM NaCl, 100 pM [^125 I]-HEAT, membranes prepared from the alpha 1a cell line and increasing amounts of unlabeled ligand. Reactions were incubated at room temperature for one hour with shaking. Reactions were filtered onto Whatman GF/C glass fiber filters with a Inotec 96 well cell harvester. Filters were washed three times with ice cold buffer and bound radioactivity was determined (Ki).

For test [2], the system named is human alpha 1d and alpha 1b adrenergic receptors. Briefly: Selective binding assays: alpha 1d and alpha 1b membranes ([125I]-HEAT competition), compared with alpha 1a. Conditions: alpha 1a vs alpha 1b and alpha 1d, ratio. The protocol:
Membranes prepared from stably transfected human alpha 1d and alpha 1b cell lines (ATCC CRL 11138 and CRL 11139, respectively) were used to identify compounds that selectively bind to the human alpha 1a adrenergic receptor. These competition binding reactions (total volume=200 μl) contained 50 mM Tris-HCl pH. 7.4, 5 mM EDTA, 150 mM NaCl, 100 pM [^125 I]-HEAT, membranes prepared from cell lines transfected with the respective alpha 1 subtype expression plasmid and increasing amounts of unlabeled ligand. Reactions were incubated at room temperature for one hour with shaking. Reactions were filtered onto Whatman GF/C glass fiber filters with a Inotec 96 well cell harvester. Filters were washed three times with ice cold buffer and bound radioactivity was determined (Ki).

Consider 9 molecules from patent US6232318A, “Pyrimidinedione derivatives useful as alpha 1A adrenoceptor antagonists” (Merck & Co., Ltd., priority 1999, dated 2001).

SMILES strings stand for the structures.

Broadly, the Ki is the dissociation constant of the complex between target and ligand, obtained from inhibition or displacement. For `Cc1cn(CCCN[C@H]2CC[C@](C#N)(c3ccccc3C#N)CC2)c(=O)n(Cc2ccccc2)c1=O` [Example 26, trans-2-{4-[3-(3-Benzyl-5-methyl-2,4-dioxo-3,4-dihydro-2H-pyrimidin-1-yl)propylamino]-1-cyanocyclohexyl}benzonitrile], the Ki in test [1] (room temperature, 1 h, pH 7.4) was 0.00079 mM. Also, in test [2], the “selectivity in binding to alpha 1a receptors versus binding to alpha 1b and alpha 1d receptors” value (“selectivity in binding” for short) is given as not above 10 fold.

`Cc1c[nH]c(=O)n(CCCN[C@H]2CC[C@@](C#N)(c3ccccc3)CC2)c1=O` [Example 21, trans-4-[3-(5-Methyl-2,6-dioxo-3,6-dihydro-2H-pyrimidin-1-yl)propylamino]-1-phenylcyclohexanecarbonitrile] registered a Ki in test [1] (room temperature, 1 h, pH 7.4) of 0.000755 mM. Further, in test [2], the “selectivity in binding” value is not above 10 fold.

For the molecule `Cc1ccccc1C1(C#N)CCN(CCCn2c(=O)c(C)cn(Cc3ccccc3)c2=O)CC1` [Example 2, 1-[3-(3-Benzyl-5-methyl-2,6-dioxo-3,6-dihydro-2H-pyrimidin-1-yl)propyl]-4-ortho-tolylpiperidine-4-carbonitrile], the “selectivity in binding” value in test [2] is given as not above 10 fold.

Regarding `Cc1c[nH]c(=O)n(CCCN[C@H]2CC[C@](C#N)(c3ccccc3)CC2)c1=O` [Example 20, cis4-[3-(5-Methyl-2,6-dioxo-3,6-dihydro-2H-pyrimidin-1-yl)propylamino]-1-phenylcyclohexanecarbonitrile], in test [2], the “selectivity in binding” value is listed as not above 10 fold.

Regarding `Cc1cn(Cc2ccccc2)c(=O)n(CCCN2CCC(c3ccc(F)cc3)CC2)c1=O` [Example 1, 1-Benzyl-3-{3-[4-(4-fluorophenyl)piperidin-1-yl]propyl}-5-methyl-1H-pyrimidine-2,4-dione], the “selectivity in binding” value in test [2] is given as not above 10 fold.

As to `COc1ccccc1[C@H]1CC[C@H](NCCCn2c(=O)c(C)cn(Cc3ccccc3)c2=O)CC1` [Example 17, trans-1-Benzyl-3-{3-[4-(2-methoxyphenyl)cyclohexylamino]propyl}-5-methyl-1H-pyrimidine-2,4-dione], the “selectivity in binding” value in test [2] is given as not above 10 fold.

With `Cc1cn(Cc2ccccc2)c(=O)n(CCCN[C@H]2CC[C@](C#N)(c3ccc(F)cc3F)CC2)c1=O` [Example 4, cis-4-[3-(3-Benzyl-5-methyl-2,6-dioxo-3,6-dihydro-2H-pyrimidin-1-yl)propylamino]-1-(2,4-difluorophenyl)cyclohexanecarbonitrile], the “selectivity in binding” value in test [2] is not above 10 fold.

As for `Cc1cn(Cc2ccccc2)c(=O)n(CCCN[C@H]2CC[C@@](C#N)(c3cc(F)cc(F)c3)CC2)c1=O` [Example 9, cis-4-[3-(3-Benzyl-5-methyl-2,6-dioxo-3,6-dihydro-2H-pyrimidin-1-yl)propylamino]-1-(3,5-difluorophenyl)cyclohexanecarbonitrile], affinity in test [1] (value in mM) was put at a Ki of 0.000115 mM. For the same molecule, in test [2], the “selectivity in binding” value was not above 10 fold.

For the molecule `Cc1cn(Cc2ccccc2)c(=O)n(CCCN[C@H]2CC[C@@](C#N)(c3ccccc3)CC2)c1=O` [Example 6, trans-4-[3-(3-Benzyl-5-methyl-2,6-dioxo-3,6-dihydro-2H-pyrimidin-1-yl)propylamino]-1-phenylcyclohexanecarbonitrile], the affinity in test [1] (room temperature, 1 h, pH 7.4), expressed as Ki, was 0.0005 mM. Further, the “selectivity in binding” value in test [2] is not above 10 fold.
